Experimental data taken from patent US11590137B2, “Ruxolitinib formulation for reduction of itch in atopic dermatitis” (Incyte Corporation, priority 2019, dated 2023).
Read-outs that look alike come from different tables or passages of the source.

Columns and labels:
[1] = Solubility of ruxolitinib free base or 1:1 phosphate salt in potential solvents (HPLC); format: physicochemical; details: for solubility at 24 h: thermodynamic from solid; for Solubility: listed as Free Base
Procedure: First, in order to determine the solubility of ruxolitinib (free base) or its 1:1 phosphate salt, approximately 5 mL of a potential solvent was added to approximately 50 mg of the API or its salt at room temperature. The mixtures were suspended and rotated on a wheel. If the mixtures became clear solutions, more solid material was added. The suspensions were then suspended over 24 hours. The samples were filtered through 0.2 micron filters. The liquid portions were collected and diluted with 50/50 water methanol/water. The concentrations of the diluted samples were analyzed by HPLC. When the free base or salt was fairly insoluble, the results are approximate only.

[2] = tested on: patients with moderate-to-severe AD; details: subcutaneous, At Week 16, Solo1 and Solo2 trials, cited from earlier work; for Proportion of patient achieving a 4-point improvement in itch NRS score: itch NRS score of ≥4 at baseline
[3] = 300 mg every other week, first printed value
[4] = 300 mg every other week, second printed value
[5] = 300 mg every week, first printed value
[6] = 300 mg every week, second printed value

N#CC[C@H](C1CCCC1)n1cc(-c2ncnc3[nH]ccc23)cn1 [ruxolitinib phosphate]
solubility at 24 h ([1]; C12-15 alcohol benzoate, oil or lipid): < 200 µg/mL | solubility at 24 h ([1]; caprylic triglyceride, oil or lipid): < 200 µg/mL | solubility at 24 h ([1]; dimethicone, oil or lipid): < 200 µg/mL | solubility at 24 h ([1]; isopropyl myristate, oil or lipid): < 100 µg/mL | solubility at 24 h ([1]; mineral oil, oil or lipid): < 100 µg/mL | solubility at 24 h ([1]; oleyl alcohol, oil or lipid, Olelyl alcohol): 100 µg/mL | solubility at 24 h ([1]; propylene glycol, organic solvent or mixture): 24000 µg/mL | solubility at 24 h ([1]; water/PEG 200 (50/50), aqueous with cosolvent or surfactant or cyclodextrin): 23000 µg/mL | solubility at 24 h ([1]; water/glycerin/trolamine (40/40/20), aqueous with cosolvent or surfactant or cyclodextrin): 18000 µg/mL

N#CC[C@H](C1CCCC1)n1cc(-c2ncnc3[nH]ccc23)cn1 [ruxolitinib, (R)-3-(4-(7H-pyrrolo[2,3-d]pyrimidin-4-yl)-1H-pyrazol-1-yl)-3-cyclopentylpropanenitrile]
solubility at 24 h ([1]; 0.1 M citric buffer, pH 4, aqueous buffer, pH 4, citric buffer, 0.1M): 1100 µg/mL | solubility at 24 h ([1]; 0.1 M citric buffer, pH 6, aqueous buffer, pH 6, citric buffer, 0.1M): 150 µg/mL | Solubility ([1]; C12-15 alcohol benzoate): 150 µg/mL | Solubility ([1]; Caprylic triglyceride): 150 µg/mL | Solubility ([1]; Mineral oil): 80 µg/mL | Solubility ([1]; Olelyl alcohol): 80 µg/mL | solubility at 24 h ([1]; PEG 200, organic solvent or mixture, PEG 200): 17400 µg/mL | solubility at 24 h ([1]; PEG 300, organic solvent or mixture, PEG 300): 10600 µg/mL | solubility at 24 h ([1]; Transcutol, organic solvent or mixture): 7600 µg/mL | Solubility ([1]; Water/PEG 200 (50/50)): 17400 µg/mL | solubility at 24 h ([1]; benzyl alcohol, organic solvent or mixture): 2300 µg/mL | solubility at 24 h ([1]; ethanol, organic solvent or mixture): 5500 µg/mL | solubility at 24 h ([1]; glycerin, organic solvent or mixture): 8300 µg/mL | solubility at 24 h ([1]; isopropanol, organic solvent or mixture): 450 µg/mL | solubility at 24 h ([1]; isosorbide dimethyl ether, organic solvent or mixture): 300 µg/mL | solubility at 24 h ([1]; trolamine, organic solvent or mixture): 38600 µg/mL | solubility at 24 h ([1]; water, room temperature): 2000 µg/mL | solubility at 24 h ([1]; water/glycerin (50/50), aqueous with cosolvent or surfactant or cyclodextrin, Water/glyercin (50/50)): 15900 µg/mL

dupilumab: a systemic biologic agent; phase 3 trials in moderate-to-severe AD cited for comparison
Proportion of patients achieving EASI-75 [2, 3]: 44% | Proportion of patients achieving IGA-TS [2, 3]: 36% | Proportion of patients achieving EASI-75 [2, 4]: 51% | Proportion of patients achieving IGA-TS [2, 4]: 38% | Proportion of patient achieving a 4-point improvement in itch NRS score [2, 3]: 36% | Proportion of patient achieving a 4-point improvement in itch NRS score [2, 4]: 41% | Proportion of patients achieving EASI-75 [2, 5]: 48% | Proportion of patients achieving IGA-TS [2, 5]: 36% | Proportion of patients achieving EASI-75 [2, 6]: 52% | Proportion of patients achieving IGA-TS [2, 6]: 37% | Proportion of patient achieving a 4-point improvement in itch NRS score [2, 5]: 39% | Proportion of patient achieving a 4-point improvement in itch NRS score [2, 6]: 40%
